The values that follow come from patent US20180251847A1, “METHOD OF PREDICTING THE TUMOR RESPONSE TO DNA METHYLATION INHIBITORS AND ALTERNATIVE THERAPEUTIC REGIMEN FOR OVERCOMING RESISTANCE” (PALACKY UNIVERSITY, OLOMOUC, priority 2014, published 2018).

The subject of assay [1] is HL-60. Briefly: MTT based cell survival assay, parental HL-60. The following applies: Homo sapiens, HL-60, read-out: Mean IC50. As to the method:
To study the mechanism of resistance towards DNA methylation inhibitor, 2′-deoxy-5-azacytidine, we used the human colorectal cancer cell line (HCT116), human promyelocytic leukemia cells (HL-60), and human breast adenocarcinoma cell line (MCF-7) obtained from American Type Culture Collection (Manassas, Va.). The cell lines were cultured in complete growth media (Sigma-Aldrich, St. Louis, Mo.), supplemented with fetal bovine serum (FBS, PAN-Biotech GmbH, Aidenbach, Germany), 100 U/mL penicillin (Biotika, Slovenská L'upča, Slovak Republic) and 50 μg/mL streptomycin (Sigma-Aldrich), and the cultures were maintained at 37° C. and 5% CO2, in a humidified incubator. […]
To determine the IC50 of the epigenetic drugs (Tocris Bioscience, Bristol, United Kingdom), four independent experiments were performed using triplicate wells of 96 well plates. […] The wells with medium alone were included alongside as blank for absorbance readings. […]
Cross resistance was determined as the fold increase, whereas, the sensitivity was determined as the fold decrease in the IC50 of the drugs for the resistant cell lines compared to their genetically identical drug sensitive counterpart.

Assay [2] has as its system HCT116 xenografts. Briefly: Anti-tumor activity in xenografted mouse model, parental HCT116. It counts as in vivo, SCID mice. Conditions: parental HCT116 xenograft, DAC 2.5 mg/kg i.p., 10 doses, day 0-21. An excerpt: For in vivo validation of HCT116 resistance towards DAC and sensitivity of DAC resistant tumors to (+)-JQ1 treatment, we studied the anti-tumor activity of DAC and (+)-JQ1 in HCT116 parental versus a resistant cell clone R1.4 (HCT116_RDAC). Xenografts were established in 11-12 weeks-old female SCID mice, inoculated with 5×10^6 cells, s.c. on both sides of the chest. After 2 weeks, tumors were palpable (average tumor volume 20 mm^3) and mice were assigned into four groups (8 mice/group). Group I: vehicle control for DAC (10:90, DMSO: PBS) and Group II: DAC, 2.5 mg/kg by i.p. injection once a day for 14 days (5 days on, 2 days off), total 10 doses. […] Body weights of the animals were measured daily and tumor volume data were collected twice a week. […]
For determining the anti-tumor activity of the drugs, DAC and (+)-JQ1, tumor volume data for each group were transformed into relative tumor volumes followed by calculation of treatment to control ratio (T/C ratio) for each time point. […] Statistical significance of the data was determined by calculating bootstrap p-value, n=10000, one-sided test of H0: T/C ratio=1, H1: T/C ratio <1 (Jianrong Wu., Journal of Biopharmaceutical Statistics 2010; 20, 954-64). After day 21, statistical significance cannot be measured accurately due to decreased survival of animals in control group. […]

As to `Nc1ncn([C@H]2C[C@H](O)[C@@H](CO)O2)c(=O)n1` [DAC, 2′-deoxy-5-azacytidine], the IC50 in assay [1] is 78 nM. In assay [2], the “fold effect (anti-tumor activity, aAUC of T/C ratio)” value was 2.9.
